From patent US7625713B2, “Process for identifying a ligand that binds to the NEP binding site for the SMR1 pentapeptide” (Institut Pasteur, priority 2000, dated 2009)
Where a SMILES comes first, the peptide text is derived from it.

Columns and labels:
male rats = experiment: Pin pain test; assay type: in vivo, rat
Description: The 3-min test session was performed 5 min after intravenous. rat tail vein administration of sialorphin or its vehicle. Naloxone (0.3 mg per kg body weight) was injected subcutaneously 15 min before sialorphin administration. Time in centre field sector (FIG. 6-C) (central square of the open-field without pin) and activity (FIGS. 6-A and 6-B) in peripheral squares (overlayed with pins) during the 3-min test session. Each value represents the mean±sem of 8 animals per group. […] Control group corresponded to pain response in vehicle-treated rats. 50 μg/kg sialorphin, 100 μg/kg sialorphin, 100 μg/kg sialorphin plus naloxone 0.3 mg/kg.
To extend the insight into the in vivo possible antinociceptive property of sialorphin through enkephalin-degrading enzyme inhibition, its effects were assessed in rat model of pain, i.e. the pin pain test, (Hebert et al. (1999) Physiology & Behavior 67, 99-105) in which the various behavioural parameters of pain responses were recorded with a 3-min cutoff time.
The in vivo activity of sialorphin was tested on the pin pain assay using male rats (350-400 g, Charles Rivers). The experimental device consists in an open-field (45×45×40 cm) which is divided into nine equal squares (150×150 mm), eight of them are peripheral and one is central. The peripheral squares are overlayed with stainless steel pins (2/cm2, length 8 mm and diameter 0.6 mm). The test consisted in placing the rat in the central square of the open-field and recording its different behaviours (cut-off time, 3 min). Two days before the pain test, the rats were familiarised with the experimental device without pins for 20 min, so as to reduce the stress linked to the spatial neophobia. All statistical analyses were carried out using the Statview 5 statistical package.

NEP = target: T1, NEP (Rattus norvegicus, UniProt P07861); experiment: Met-enkephalinase activity of rat spinal cord slices, Met-enkephalin RIA; assay type: biochemical; conditions: 10 μM, fresh spinal cord tissue, 20 min at 25° C.
T1 construct: incubations of membrane and fresh tissue slice preparations from nervous tissues; from tissue; host or cells: dorsal spinal cord of male Wistar rats (fresh slices or 100 000 x g membrane fraction)
T1 sequence (P07861 1-750): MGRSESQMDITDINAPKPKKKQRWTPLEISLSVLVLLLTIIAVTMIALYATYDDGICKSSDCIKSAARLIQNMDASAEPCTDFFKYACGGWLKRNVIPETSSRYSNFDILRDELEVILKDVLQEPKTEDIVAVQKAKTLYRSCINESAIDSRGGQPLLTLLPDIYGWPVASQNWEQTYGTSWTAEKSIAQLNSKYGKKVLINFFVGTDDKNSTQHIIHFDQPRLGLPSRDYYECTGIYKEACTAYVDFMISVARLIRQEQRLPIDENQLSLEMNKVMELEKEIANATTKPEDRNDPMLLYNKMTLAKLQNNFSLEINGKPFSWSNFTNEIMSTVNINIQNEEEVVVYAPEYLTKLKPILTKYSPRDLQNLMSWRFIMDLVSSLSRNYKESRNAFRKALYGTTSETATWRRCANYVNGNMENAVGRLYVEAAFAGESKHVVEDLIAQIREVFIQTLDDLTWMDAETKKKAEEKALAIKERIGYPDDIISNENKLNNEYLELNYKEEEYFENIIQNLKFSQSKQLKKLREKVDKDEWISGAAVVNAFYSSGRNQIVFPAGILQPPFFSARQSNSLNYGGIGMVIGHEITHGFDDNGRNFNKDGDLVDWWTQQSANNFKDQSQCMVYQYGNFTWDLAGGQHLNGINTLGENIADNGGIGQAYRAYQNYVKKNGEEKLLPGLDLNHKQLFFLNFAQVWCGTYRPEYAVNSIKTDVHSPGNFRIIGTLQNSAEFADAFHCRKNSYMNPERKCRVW
Description: FIG. 2-A: […] The organs are rapidly removed, dissected on ice, freed of nerve fibers and of adipose tissues and then washed in cold oxygenated glucose- and bicarbonate-containing Krebs Ringer (KRBG) solution, whose composition is the following: 120 mM NaCl-5 mM KCl-1.2 mM KH2PO4-27.5 mM NaHCO3-2.6 mM CaCl2-0.67 mM MgSO4-5.9 mM glucose. The slices of tissues are prepared either manually with the aid of a scalpel (1-2 mm thick), or mechanically with the aid of a “Tissue Chopper” (1 mm thick). Slices are then dispersed into reaction tubes where they are subjected to three successive washes in ice-cold oxygenated KRBG. […] For the experiments of analysis of the NEP peptidase activity, an ex vivo model using incubations of membrane and fresh tissue slice preparations from nervous tissues that are known to be appropriate for exploring NEP peptidase activity: i.e. the dorsal zone of rat spinal cord, was first developed. The metabolism rate of the NEP-sensitive peptides was measured using the both NEP substrates involved in the signaling of the nociceptive response: the neuropeptides Met-enkephalin and Substance P. […] (NEN, 12.5-25 nM) were used. The objective was to measure the NEP-specific endoproteolysis of these substrates. […] Furthermore, for studying the functional role of […] NO: 2), the reaction was carried out in the presence of the SMR1-peptide alone or combined with specific inhibitors of membrane peptidases which could inactivate the […] […] Herein, a competitive RIA system has been used: the quantity of radioactive antigen bound to the antibody decreases in a manner inversely proportional to the quantity of antigen contained in the standard solution or in the sample. […] The activity of enkephalinase NEP is monitored by quantification of the disappearance of the initial Met-enkephalin substrate. […] The radiolabeled antigen is iodinated Met-enkephalin (^125I-Met-Enk enkephalin) with a specific radioactivity estimated at 3000 Ci/mmol. […] After centrifugation, the bound radioactivity of the precipitate is quantified using a gamma-spectrometer.

[1] = 100 μg per kg intravenous, 3-min trial, n=8, mean±sem

protection of Met-enkephalin from degradation (NEP): 96%
SMILES: N=C(N)NCCC[C@H](NC(=O)[C@@H]1CCCN1C(=O)[C@H](CC(N)=O)NC(=O)[C@H](Cc1c[nH]cn1)NC(=O)[C@@H](N)CCC(N)=O)C(=O)O [sialorphin, Gln-His-Asn-Pro-Arg] (H-QHNPR-OH; N-terminus and C-terminus assumed)
frequency of crossings peripheral squares (male rats; 100 μg per kg intravenous, 3-min trial 5 min after administration, n=8, mean±sem): 11.13±1.43
number of audible vocalisation responses (male rats; [1]): 0.25±0.16
number of escape responses (male rats; [1]): 0.13±0.13
rearings on peripheral squares (male rats; [1]): 3.88±0.83
analgesia (male rats; 100 μg/kg given intravenously): 74-97%
time in the central area of the open-field (male rats; sialorphin intravenous alone, second test trial, 3-min test): 57.75 ± 21.30 s
